# Measurements from patent US20230000808A1, “COMPOSITIONS AND METHODS EXCLUDING OR WITH REDUCED GLUTAMINE FOR THE TREATMENT OF HEMOGLOBINOPATHIES AND THALASSEMIAS” (AXCELLA HEALTH INC., priority 2019, published 2023).
# Test system: sICAM-1
# Assay: Soluble ICAM-1 in HLMVEC/TNF-α model (Luminex)
# Type: cell-based, human
# Conditions: for sICAM-1 expression relative to TNF Control, Mean % Change: 20×HMDB amino acids, 24 h co-treatment
# Method: Cells were incubated at 37° C., 5% CO2 in a humidified incubator. Cells were passaged at least 1-2 times in the complete growth medium every 2-3 days until ready to plate for cell culture studies. Once ready for experiment, HLMVECs were seeded at a density of 6K cells per well of the 96 well optical microplates (Thermofisher) in the complete growth medium described above and the plated cells were incubated for 24 hours at 37° C. in a humidified incubator with 5% CO2. […] The values are published in the Human Metabolome Database (Wishart D S, et al., Nucleic Acids Res. 2007 January; 35:D521-6) which is hereby incorporated by reference in its entirety. The medium was also supplemented with growth factors & antibiotics from EGM2-MV kit (Lonza) except the kit-provided FBS which was substituted with dialyzed FBS (Hyclone). […]). […] were run in duplicate and data was normalized to corresponding TNF-α control for respective treatments as specified in the tables. Mean percent change in level of adhesion markers are reported herein. Statistical analysis was done using two sample t-test.
smiles,measurement,setting,value
"NC(=O)CC[C@H](N)C(=O)O [Glutamine, L-glutamine]",sICAM-1 levels,"0.5 ng/mL TNF-α (low), 20×HMDB, 24 h",failed to reduce
same,"sICAM-1 expression relative to TNF Control, Mean % Change",TNF Conc 0.5 ng/mL,5.573%
same,"sICAM-1 expression relative to TNF Control, Mean % Change",TNF Conc 25 ng/mL,142.4986%
same,sICAM-1 level increased by,"TNF-α 25 ng/mL, 20×HMDB, 24 h",142%
